Reference: patent US20090247732A1 (Optimer Pharmaceuticals, Inc., priority 2003, published 2009)
Ends that are not written are not given here. Peptide text beside a SMILES is read from it. * marks the point of attachment. Fmoc = O=C(OCC1c2ccccc2-c2ccccc21)*

What was measured:
trypsin [1] = experiment: Degradation study with trypsin (LCMS, product ratios by PDA integration); type: in vitro ADME; parameters: key to Deg 1 / Deg 2: product ratio (%) by PDA peak integration; settings: for Deg 1 / Deg 2 / mode of enzymatic degradation (cleavage site / products): trypsin; for Deg 1 / Deg 2: pH 7.5; for Parent (%): 120 units trypsin, 0.1 M pH 7.5 potassium phosphate buffer; for mode of enzymatic degradation (cleavage site / products): in words
Protocol: Degradation Study: A solution of 1 (1 mg) in 0.1 M, pH 7.5 potassium phosphate buffer (1 mL) was treated with 120 units of trypsin (10 μL of a 1 mg/mL solution of trypsin 12000 units/mg). A 20 μL aliquot of the sample was immediately analyzed by LCMS.
Column: Waters Symmetry 300, 4.6×250 mm, C18, 5 micron particle size.
Solvent B: Acetonitrile/0.1% TFA
Gradient: 15-40% B over 30 minutes; 15% B isocratic for 10 minutes
The initial injection was defined as “time 0” and one subsequent injection was carried out at 40 minutes. The degradation products were characterized by mass spectrometry using electrospray positive ionization (ES^+). Product ratios were determined by integration of photodiode array (PDA) spectra.

trypsin [2] = experiment: trypsin in 0.1 M, pH 7.5 potassium phosphate buffer; settings: up to 40 minutes
[3] = degradation product 1, time 40 minutes
[4] = degradation product 2, time 40 minutes
[5] = time 40 (injection at 40 minutes)

Molecule	Deg 1 (trypsin [1]; degradation product 1, time 0)	Deg 1 (trypsin [1]; [3])	Deg 2 (trypsin [1]; degradation product 2, time 0)	Deg 2 (trypsin [1]; [4])	Parent (%) (trypsin [1]; time 0 (initial injection))	Parent (%) (trypsin [1]; [5])	mode of enzymatic degradation (cleavage site / products) (trypsin [1])	not cleaved (trypsin [2])	cleaved bond (trypsin [2])	fragment found (trypsin [2])
CC(=O)OCC1OC(OC2C(COC(C)=O)OC(OC3C(COC(C)=O)OC(OCC(=O)NC(CCCCN)C(=O)NC(CCCCN)C(=O)NC(CCCNC(=N)N)C(=O)NCC(=O)NCC(=O)NC(CO)C(=O)O)C(OC(C)=O)C3OC(C)=O)C(OC(C)=O)C2OC(C)=O)C(OC(C)=O)C(OC(C)=O)C1OC(C)=O (stereo not shown) [Compound 1]	5	0	20	100	75%	0%	hydrolysis is initially observed between the arginine and glycine residues			
N=C(N)NCCCC(NC(=O)C(CCCCN)NC(=O)C(CCCCN)NC(=O)OCC1c2ccccc2-c2ccccc21)C(=O)NCC(=O)NCC(=O)NC(CO)C(=O)O (stereo not shown) [Compound 4] (Fmoc-KKRGGS-OH; configuration not given here)	4	54	4	45	92%	1%	hydrolysis occurs sequentially inward from the N-terminus			
Compound 2: Crude triphenylmethyl protected glycopeptide from peptide A (SEQ ID No. 1) and carbohydrate glycolic acid C (KKRGGS; also: glycopeptide with carbohydrate glycolic acid C, triphenylmethyl protected)	0	67			60%	27%	a single, as yet uncharacterized product of the enzyme reaction			
KKRGGS								100% parent at 40 minutes; no degradation products observed		
KKRGGS [1]									arginine-glycine, first_seen	the two lysine residues conjugated to the carbohydrate
